Measured values: patent US12551532B2, “Long-acting amylin receptor agonists and uses thereof” (Eli Lilly and Company, priority 2021, dated 2026)
Starred links: 1 amine or outer side, 2 acyl side, 3 side chain; linkers in the order of their positions; H or OH if unused. Positions of bridges follow the written chain, without caps; N, C: chain ends. Non-standard residues stand in square brackets, D forms with d. Residues, ends and D or L forms follow the SMILES beside them. Groups on a side chain read outwards from the residue. *: point of attachment. C20 diacid = O=C(O)CCCCCCCCCCCCCCCCCCC(=O)*; γGlu = O=C(O)[C@H](CCC(=O)[*:2])N[*:1]; αMeF = C[C@](N)(Cc1ccccc1)C(=O)O; NMeD = CN[C@@H](CC(=O)O)C(=O)O; NMeN = CN[C@@H](CC(N)=O)C(=O)O; Orn = NCCC[C@H](N)C(=O)O; CH2 = C([*:1])[*:2]

Tests used:
[1] = target: T1, hAMY1R (Homo sapiens, UniProt O60894+P30988); assay: hAMY1R cAMP functional activity (HTRF); type: cell-based; details: ±SE; UMUC3 cells overexpressing hAMY1R; relative EC50
T1 construct: expressed in transfected cells
T1 sequence (O60894 27-148 partner, one chain of several): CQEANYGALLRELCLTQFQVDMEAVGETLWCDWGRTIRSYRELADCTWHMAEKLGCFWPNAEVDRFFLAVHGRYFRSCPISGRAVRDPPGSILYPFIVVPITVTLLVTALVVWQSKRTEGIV
Protocol: The AMY1 and CT receptors are GPCRs that are functionally coupled to Gas proteins. […] In vitro activity of peptides is measured by the amount of cAMP formed in human AMY1R and CTR overexpressed cells.
Human AMY1R stable cell lines are generated by further transfecting human RAMP1-pCMVpuroPB (T14213) into UMUC3 hCTR clone cells. After selection, the mRNA levels human RAMP1 from different clones are measured to confirm the expression of human AMY1R.
hAMY1R cells are cultured in MEM 1× (Corning) supplemented with 10% FBS, 1% antibiotic/antimycotic solution, 1 mM sodium pyruvate, 1×MEM NEAA, 1× GlutaMAX-I, 200 μg/mL hygromycin B, and 0.4 μg/mL puromycin. The hCTR cells are cultured in the same medium lacking the puromycin. Cultured cells are grown to 70% confluency and then incubated overnight with fresh medium.
Peptides diluted in DMSO are added (200 nL/well) in a 1:3 dilution series using ECHO acoustic liquid handler (Beckman). Cultured cells are detached with TrypLE Express (Gibco), resuspended in assay buffer, and 10 μL containing 1200 cells/well (hCTR) or 1500 cells/well (hAMY1R) are dispensed into each well. The plates are incubated at room temperature for 1 hour.
The amount of intracellular cAMP is quantitated using HTRF technology (Homogeneous Time Resolved Fluorescence; Cisbio) as per vendor instructions. Briefly, 10 μL cAMP-d2 conjugate and 10 μL anti-cAMP-cryptate conjugate in lysis buffer are incubated with the treated cells at room temperature for 60 min. […] The raw data are converted to cAMP amount (pmol/well) using a cAMP standard curve generated for each experiment.

[2] = target: T2, human calcitonin receptor (hCTR) (Homo sapiens, UniProt P30988); assay: hCTR competitive radioligand binding filter assay (125I-hCT); details: ± SE; membranes of hCTR overexpressing cells
T2 construct: expressed in transfected cells; host or cells: membranes of UM-UC-3 (UMUC3) cells stably expressing human CTa
T2 sequence (P30988 25-474): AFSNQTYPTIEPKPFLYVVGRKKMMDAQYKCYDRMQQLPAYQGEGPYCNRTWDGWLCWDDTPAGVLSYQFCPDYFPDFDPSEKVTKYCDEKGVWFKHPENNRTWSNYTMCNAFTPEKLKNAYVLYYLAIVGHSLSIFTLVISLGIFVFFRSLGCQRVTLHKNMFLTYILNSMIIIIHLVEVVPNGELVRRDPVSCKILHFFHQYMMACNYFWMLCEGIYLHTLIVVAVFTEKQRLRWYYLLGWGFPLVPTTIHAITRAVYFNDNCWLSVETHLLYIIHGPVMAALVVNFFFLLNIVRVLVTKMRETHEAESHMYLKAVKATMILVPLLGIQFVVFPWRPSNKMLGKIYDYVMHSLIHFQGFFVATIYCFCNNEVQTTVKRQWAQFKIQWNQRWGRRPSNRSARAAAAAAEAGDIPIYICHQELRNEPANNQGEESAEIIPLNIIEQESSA
Protocol: The equilibrium dissociation constants (Kd) for the various receptor/radioligand interactions are determined from saturation binding analysis using the same reagents and buffers as described below for compound testing.
The receptor binding affinity (Ki) of rAMY, hCT, and hAMY agonist peptides on hCTR membranes is determined from a competitive radioligand binding filter assay.

[3] = Pharmacokinetics in male Sprague Dawley rats; type: in vivo; details: single SC 30 nmol/kg, mean; for Tmax / CL/F / half-life: rat, plasma; for Tmax / AUCINF/D / Cmax/D / CL/F: n = 3; for half-life: n = 3, read-out: T l/2 (converted)
Protocol: (§1) The pharmacokinetics of Compound II (SEQ ID NO:2), Compound IV (SEQ ID NO:4), Compound VI (SEQ ID NO:6), and Compound VIII (SEQ ID NO:8) are evaluated following a single subcutaneous administration of 30 nmol/kg to male Sprague Dawley rats. Blood samples are collected at 1, 3, 6, 12, 24, 48, 72, 96 hours post SC dose. The resulting individual plasma concentrations are used to calculate pharmacokinetic parameters. Peptide plasma (K3EDTA) concentrations are determined using a qualified LC/MS method that measured the intact mass of the peptides. Each peptide and an analog as an internal standard are extracted from plasma. A high resolution Thermo Q-Exactive is used for LC/MS detection.

[4] = Pharmacokinetics in male cynomolgus monkeys; type: in vivo; details: single SC 20 nmol/kg, mean; for Tmax / CL/F / half-life: male, cynomolgus monkey, plasma; for Tmax / AUCINF/D / Cmax/D / CL/F: n = 3; for half-life: n = 3, read-out: T½ (converted)
Protocol: as §1, with “20” for “30”, “cynomolgus monkeys.” for “Sprague Dawley rats.”, “120, 168, 240, 336, 408, 504” for “96”

EC50 [1] [nM] | Ki [2] [nM] | Tmax [3] [h] | AUCINF/D [3] [hr * kg * nmol/L/nmol] | Cmax/D [3] [kg * nmol/L/nmol] | Tmax [4] [h] | AUCINF/D [4] [hr * kg * nmol/L/nmol] | Cmax/D [4] [kg * nmol/L/nmol] | CL/F [3] [mL/h/kg] | half-life [3] [h] | CL/F [4] [mL/h/kg] | half-life [4] [h] | Structure (SMILES)
0.075 ± 0.012 | 202 ± 45 | 24 | 473 ± 63.8 | 4.9 ± 0.9 | 64 ± 13.9 | 1752 ± 313 | 6.7 ± 1.0 | – | – | – | – | CC(C)C[C@H](NC(=O)[C@H](CCCN)NC(=O)CNC(=O)[C@@H](NC(=O)[C@H](C)NC(=O)[C@@H]1CSCSC[C@H](NC(=O)CC[C@H](N)C(=O)O)C(=O)N[C@@H](CC(N)=O)C(=O)N[C@@H]([C@@H](C)O)C(=O)N[C@@H](C)C(=O)N[C@@H]([C@@H](C)O)C(=O)N1)[C@@H](C)O)C(=O)N[C@@H](C)C(=O)N[C@@H](CCC(=O)O)C(=O)N[C@@](C)(Cc1ccccc1)C(=O)N[C@@H](CC(C)C)C(=O)N[C@H](C(=O)N[C@@H](CCCNC(=N)N)C(=O)N[C@@H](CO)C(=O)N[C@@H](CO)C(=O)N[C@@H](CC(N)=O)C(=O)N(C)[C@@H](CC(N)=O)C(=O)N[C@@H](Cc1ccccc1)C(=O)NCC(=O)N1CCC[C@H]1C(=O)N[C@@H](CCCCNC(=O)CC[C@H](NC(=O)CC[C@H](NC(=O)CCCCCCCCCCCCCCCCCCC(=O)O)C(=O)O)C(=O)O)C(=O)N[C@@H](CC(C)C)C(=O)N1CCC[C@H]1C(=O)N1CCC[C@H]1C(=O)N[C@H](C(=O)N[C@@H](CCC(=O)O)C(=O)N[C@H](C(=O)NCC(=O)N[C@@H](CO)C(=O)N[C@@H](CC(N)=O)C(=O)N[C@H](C(=O)N[C@@H](Cc1ccc(O)cc1)C(N)=O)[C@@H](C)O)C(C)C)[C@@H](C)O)C(C)C [Compound II] (γGlu-CNTATCATG[Orn]LAE[αMeF]LVRSSN[NMeN]FGPK([γGlu-γGlu-C20 diacid])LPPTEVGSNTY-NH2; linker 1-6 via CH2)
0.107 ± 0.016 | 665 ± 113 | 20 ± 6.9 | 551 ± 27.1 | 5.5 ± 2.1 | 48 ± 24 | 1607 ± 104 | 6.2 ± 1.0 | 1.8 | 66.9 ± 27.6 | 0.62 | 177 ± 13.5 | CC(C)C[C@H](NC(=O)[C@H](CCCN)NC(=O)CNC(=O)[C@@H](NC(=O)[C@H](C)NC(=O)[C@@H]1CSCSC[C@H](NC(=O)CC[C@H](N)C(=O)O)C(=O)N[C@@H](CC(N)=O)C(=O)N[C@@H]([C@@H](C)O)C(=O)N[C@@H](C)C(=O)N[C@@H]([C@@H](C)O)C(=O)N1)[C@@H](C)O)C(=O)N[C@@H](C)C(=O)N[C@@H](CCC(=O)O)C(=O)N[C@@](C)(Cc1ccccc1)C(=O)N[C@@H](CC(C)C)C(=O)N[C@H](C(=O)N[C@@H](CCCNC(=N)N)C(=O)N[C@@H](CO)C(=O)N[C@@H](CO)C(=O)N[C@@H](CC(N)=O)C(=O)N(C)[C@@H](CC(=O)O)C(=O)N[C@@H](Cc1ccccc1)C(=O)NCC(=O)N1CCC[C@H]1C(=O)N[C@@H](CCCCNC(=O)CC[C@H](NC(=O)CC[C@H](NC(=O)CCCCCCCCCCCCCCCCCCC(=O)O)C(=O)O)C(=O)O)C(=O)N[C@@H](CC(C)C)C(=O)N1CCC[C@H]1C(=O)N1CCC[C@H]1C(=O)N[C@H](C(=O)N[C@@H](CCC(=O)O)C(=O)N[C@H](C(=O)NCC(=O)N[C@@H](CO)C(=O)N[C@@H](CC(N)=O)C(=O)N[C@H](C(=O)N[C@@H](Cc1ccc(O)cc1)C(N)=O)[C@@H](C)O)C(C)C)[C@@H](C)O)C(C)C [Compound IV, γE-CNTATCATG-Orn-LAE-αMeF-LVRSSN-NMeD-FGPKLPPTEVGSNTY-NH2] (γGlu-CNTATCATG[Orn]LAE[αMeF]LVRSSN[NMeD]FGPK([γGlu-γGlu-C20 diacid])LPPTEVGSNTY-NH2; linker 1-6 via CH2)
0.107 ± 0.015 | 235 ± 45 | 24 | 506 ± 26.6 | 5.4 ± 0.5 | 40 ± 13.9 | 794 ± 27 | 4.9 ± 0.7 | 2 | 54 ± 8.4 | 1.26 | 85 ± 5.8 | CC[C@H](C)[C@H](NC(=O)[C@@H]1CCCN1C(=O)CNC(=O)[C@H](Cc1ccccc1)NC(=O)[C@H](CC(=O)O)N(C)C(=O)[C@H](CC(N)=O)NC(=O)[C@H](CO)NC(=O)[C@H](CO)NC(=O)[C@H](CCCNC(=N)N)NC(=O)[C@@H](NC(=O)[C@H](CC(C)C)NC(=O)[C@](C)(Cc1ccccc1)NC(=O)[C@H](CCC(=O)O)NC(=O)[C@H](C)NC(=O)[C@H](CC(C)C)NC(=O)[C@H](CCCN)NC(=O)CNC(=O)[C@@H](NC(=O)[C@H](C)NC(=O)[C@@H]1CSCSC[C@H](NC(=O)[C@@H](N)CCCCNC(=O)CC[C@H](NC(=O)CC[C@H](NC(=O)CCCCCCCCCCCCCCCCCCC(=O)O)C(=O)O)C(=O)O)C(=O)N[C@@H](CCC(=O)O)C(=O)N[C@@H]([C@@H](C)O)C(=O)N[C@@H](C)C(=O)N[C@@H]([C@@H](C)O)C(=O)N1)[C@@H](C)O)C(C)C)C(=O)N[C@@H](CC(C)C)C(=O)N1CCC[C@H]1C(=O)N1CCC[C@H]1C(=O)N[C@H](C(=O)N[C@@H](CCC(=O)O)C(=O)N[C@H](C(=O)NCC(=O)N[C@@H](CO)C(=O)N[C@@H](CC(N)=O)C(=O)N[C@H](C(=O)N[C@@H](Cc1ccc(O)cc1)C(N)=O)[C@@H](C)O)C(C)C)[C@@H](C)O [Compound VI, KCETATCATG-Orn-LAE-αMeF-LVRSSN-NMeD-FGPILPPTEVGSNTY-NH2] (H-K([γGlu-γGlu-C20 diacid])CETATCATG[Orn]LAE[αMeF]LVRSSN[NMeD]FGPILPPTEVGSNTY-NH2; linker 2-7 via CH2)
